In patent US20260092054A1, “FUSED RING COMPOUND AND PHARMACEUTICAL CONTAINING SAME” (KAKEN PHARMACEUTICAL CO., LTD., priority 2022, published 2026):

What was measured:
human STAT6/pIL-4Rα = target: T1, human STAT6/pIL-4Rα (Homo sapiens, UniProt P42226); assay: Binding inhibitory activity between human STAT6/pIL-4Rα by fluorescence polarization method; conditions: rhSTAT6 (123-658) / FAM-pIL-4Rα peptide
T1 construct: histidine tag
T1 sequence (P42226 123-658): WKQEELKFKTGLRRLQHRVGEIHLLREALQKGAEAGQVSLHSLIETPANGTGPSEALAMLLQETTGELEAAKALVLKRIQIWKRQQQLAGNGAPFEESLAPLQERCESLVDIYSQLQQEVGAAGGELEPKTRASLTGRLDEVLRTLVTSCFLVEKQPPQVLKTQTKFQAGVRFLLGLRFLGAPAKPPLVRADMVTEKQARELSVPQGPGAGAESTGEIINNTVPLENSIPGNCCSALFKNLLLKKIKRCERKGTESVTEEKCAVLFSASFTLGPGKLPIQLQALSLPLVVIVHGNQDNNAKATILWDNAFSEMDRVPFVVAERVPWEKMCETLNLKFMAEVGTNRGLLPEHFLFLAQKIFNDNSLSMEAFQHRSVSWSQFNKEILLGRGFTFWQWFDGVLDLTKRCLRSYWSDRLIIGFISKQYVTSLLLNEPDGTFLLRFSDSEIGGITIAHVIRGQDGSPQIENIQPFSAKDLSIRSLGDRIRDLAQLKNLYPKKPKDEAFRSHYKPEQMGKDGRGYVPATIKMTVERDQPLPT
Protocol: Test Example 1: Measurement of Binding Inhibitory Activity Between Human STAT6/pIL-p 4Rα by Fluorescence Polarization Method
1) Construction of Histidine Tag-Fused Recombinant Human STAT6 (123 to 658 Region)
A histidine tag-fused recombinant human STAT6 (hereinafter referred to as rhSTAT6) expression vector [plasmid DNA in which a nucleic acid sequence containing human STAT6 (123-658 region) was inserted into a pET28a(+) vector (Novagen)] was inserted into E. coli, and the cells were cultured overnight under culturing conditions at 17° C. with IPTG treatment. After disrupting E. coli with a high-pressure homogenizer (EmulsiFlex-C3, manufactured by AVESTIN, Inc.), affinity purification using Ni-NTA agarose (manufactured by Qiagen), cation exchange chromatography using HiTrap® CM-FF (manufactured by GE healthcare), and gel filtration chromatography using Superdex® 200 10/300GL (manufactured by GE healthcare) were performed to obtain rhSTAT6.
2) Measurement of Binding Inhibitory Activity Between Human STAT6/pIL-4Rα by Fluorescence Polarization Method
A DMSO solution of the example compound was diluted with an assay buffer [for example, a buffer containing 50 mmol/L NaCl, 10 mmol/L HEPES (pH 7.0), 1 mmol/L DTT, 1 mmol/L EDTA, and 0.01 vol % NP-40, and the like] to prepare a compound-added solution. The DMSO concentration in the compound addition solution was adjusted to 1 or 2 vol %. 10 μL of the compound addition solution and an assay buffer containing 1 or 2 vol % DMSO were added to each well of a 384-well plate. 5 μL of an assay buffer solution containing rhSTAT6 (rhSTAT6 concentration: for example, 1 μmol/L) or an assay buffer was added to each well of a 384-well plate. After leaving the plate at room temperature for 30 minutes in the dark, 5 μL of an assay buffer solution (FAM-pIL-4Rp concentration: for example, 80 nmol/L) containing FAM-labeled phosphorylated IL-4Rα peptide (sequence: FAM-Ala-pTyr-Lys-Pro-Phe-Gln-Asp-Leu-IIe-NH2) (hereinafter, FAM-pIL-4Rp) or an assay buffer containing 2 vol % DMSO was added to each well of the 384-well plate. The mixture was left to stand at room temperature for 30 minutes in the dark, and then centrifuged (200 g, 1 minute, room temperature). Fluorescence polarization values were measured using Infinite (registered trademark) F500 (manufactured by Tecan Japan Co., Ltd.) (Excitation: 485 nm, Emission: 535 nm). The inhibition rate of each Example compound was calculated according to the following formula using the fluorescence polarization value (A) when rhSTAT6 and FAM-pIL-4Rp were added without adding the Example compound, the fluorescence polarization value (B) when FAM-pIL-4Rp was added without adding the Example compound and rhSTAT6, and the fluorescence polarization value (C) when each Example compound, rhSTAT6, and FAM-pIL-4Rp were added.
In the evaluation of each example compound, the 50% inhibitory concentration (IC50) of each example compound was calculated from a linear function equation of a straight line connecting two points sandwiching 50%.

human STAT6 = assay: Human STAT6 dependent reporter activity (IL-4 stimulated STAT6 reporter assay using STAT6-HEK293 cells); assay type: cell-based; conditions: Homo sapiens, IL-4 stimulation, luciferase activity, read-out: Inhibition rate (%); for inhibition at 0.1 µM: compound 0.1 μmol/L; for inhibition at 1 µM: compound 1 μmol/L
Protocol: Test Example 2: Measurement of Human STAT6 Dependent Reporter Activity
1) Construction of Human STAT6-HEK293 Cells
HEK 293 cells maintenance cultured by [Penicillin-Streptomycin (Thermo Fisher Scientific) and FBS, 1 vol % and 10 vol % respectively added to DMEM high glucose (Thermo Fisher Scientific)](manufactured by ATCC) were collected, and suspended in 10 mL of 0.5% BSA/PBS. 1×10^6 cells were collected, the supernatant was removed by centrifuging, and the cells were suspended in 100 μL of Nucleofector solution V (manufactured by Lonza K.K.). 2 μg of STAT6 vector [plasmid DNAs incorporating human STAT6 sequences in pcDNA3.1 (Invitrogen)] was added, and the STAT6 vector was introduced into the HEK293 cells using the program Q-001 initially registered in the Nucleofector®2b. A cell line (STAT6-HEK293 cells) consistently expressing STAT6 was acquired by selecting resistant cells in a medium containing Geneticin® (manufactured by Thermo Fisher Scientific). 2) STAT6 reporter assay using STAT6-HEK293 cells 3×10^6 STAT6-HEK293 cells maintained in assay medium [culture medium supplemented with 1 vol % Geneticin®] were harvested and seeded in a 10 cm dish. 3 μg of a STAT6 reporter vector [plasmid in which a sequence containing a STAT6 binding sequence and a C/EBP binding sequence in tandem was incorporated into pGL4.27 (manufactured by Promega Corporation)] and 9 μL of FuGENE® HD transfection reagent (manufactured by Promega Corporation) were added to 500 μL of Opti-MEM® (manufactured by Thermo Fisher Scientific) to prepare transfection solutions. The transfection solution was vortexed and left to stand for about 5 minutes, then added dropwise to the STAT6-HEK293 cells, which were then cultured overnight in a C02 incubator to produce STAT6 reporter cells.
The prepared STAT6 reporter cells were seeded on B&W isoplate-96 TC (PerkinElmer Japan Co., Ltd.) (3×10^4 cells/50 μL/well) and cultured overnight in a C02 incubator (37° C., 5% C02). 50 μL of assay medium was added to each well instead of the STAT6 reporter cells. The compound addition solution was prepared by diluting the DMSO solution of the example compound 250-fold using the assay medium. 20 μL of compound addition solution or 0.4 vol % DMSO-containing assay medium was added to the plate, and the plate was then cultured in a CO2 incubator for 1 hour. 10 μL of 80 ng/mL human IL-4 solution (Peprotech) or assay medium was added to each well, and the cells were cultured in a CO2 incubator for 6 hours.
STAT6 reporter activity was measured using the Bright-Glo® Luciferase Assay System (Promega). 100 μL of Bright-Glo® reagent was added to each well, and luciferase activity was measured using Infinite® F500. The inhibition rate of each Example compound was calculated by the following formula using the luciferase activity value (G) when no Example compound was added and stimulation with IL-4 was performed, the luciferase activity value (H) when no Example compound was added and stimulation with IL-4 was not performed, and the luciferase activity value (I) when each Example compound was treated and stimulation with IL-4 was performed.
Note that the viable cell rate under each condition was 70% or more, and it was determined that the luciferase activity inhibitory activity of each example compound was appropriately evaluated.

IC50 (human STAT6/pIL-4Rα) [µM] | SMILES | inhibition at 0.1 µM (human STAT6) [%] | inhibition at 1 µM (human STAT6) [%]
9.09 | CCn1c(-c2ccc(N3C(=O)C(C)CC3C)cc2)nc2cc(C(F)(F)F)cc(C(=O)Nc3cccc(C(N)=O)c3)c21 (single isomer, unassigned) [Ex. 13] | – | –
9.6 | CCn1c(-c2ccc(N3C(=O)C(C)CC3C)cc2)nc2cc(C(F)(F)F)cc(C(=O)Nc3cccc(C(N)=O)c3F)c21 (single isomer, unassigned) [Ex. 220] | – | –
3.1 | CC1CC(C)N(c2ccc(-c3cc4ccnc(C(=O)Nc5ccc(F)c(C(N)=O)c5)c4n3CC3(C#N)CC3)cc2)C1=O (single isomer, unassigned) [Ex. 222] | – | –
1.59 | CC1CC(C)N(c2ccc(-c3cc4ccnc(C(=O)Nc5cccc(C(N)=O)c5F)c4n3CC3(C#N)CC3)cc2)C1=O (single isomer, unassigned) [Ex. 224] | – | –
2.28 | CCn1c(-c2ccc3c(c2)CCN(C(C)=O)C3)nc2cc(C(F)(F)F)cc(C(=O)Nc3cccc(C(N)=O)c3)c21 [Ex. 3] | – | –
– | CCn1c(-c2ccc(-c3ncon3)cc2)nc2cc(Br)cc(C(=O)Nc3cccc(C(N)=O)c3)c21 [Ex. 7] | 1 | 56
3.26 | CCn1c(-c2ccc(-n3ccccc3=O)cc2)nc2cc(C(F)(F)F)cc(C(=O)Nc3cccc(C(N)=O)c3C)c21 [Ex. 10] | – | –
– | CCn1c(-c2ccc3c(c2)CCOC3C(N)=O)cc2ccnc(C(=O)Nc3ccc(F)c(C(N)=O)c3)c21 (stereo not drawn) [Ex. 28] | 43 | 93
0.84 | COCCn1c(-c2ccc3c(c2)CCOC3C(=O)O)nc2cc(C(F)(F)F)cc(C(=O)Nc3cccc(C(N)=O)c3)c21 (stereo not drawn) [Ex. 29] | – | –
0.4 | COCCn1c(-c2ccc3c(c2)CCOC3C(N)=O)nc2cc(C(F)(F)F)cc(C(=O)Nc3cccc(C(N)=O)c3)c21 (stereo not drawn) [Ex. 36] | – | –
3.97 | COCCn1c(-c2ccc(-n3c(C)nn(C)c3=O)cc2)cc2cc(C(F)(F)F)cc(C(=O)Nc3ccc(F)cc3)c21 [Ex. 53] | – | –
3.39 | COCCn1c(-c2ccc(-n3c(C)nn(C)c3=O)cc2)cc2cc(C(F)(F)F)cc(C(=O)Nc3ccncc3)c21 [Ex. 54] | – | –
2.57 | Cc1nn(C)c(=O)n1-c1ccc(-c2cc3cc(C(F)(F)F)cc(C(=O)Nc4ccc(F)c(C(N)=O)c4)c3n2C)cc1 [Ex. 55] | – | –
0.55 | CCn1c(-c2ccc(-n3c(C)nn(C)c3=O)cc2)cc2cccc(C(=O)Nc3cccc(C(N)=O)c3F)c21 [Ex. 58] | – | –
0.47 | CCn1c(-c2ccc(-n3c(C)nn(C)c3=O)cc2)cc2cc(F)cc(C(=O)Nc3cccc(C(N)=O)c3F)c21 [Ex. 60] | – | –
2.53 | COCCn1c(-c2ccc(-n3c(C)nn(C)c3=O)cc2)cc2cc(C(F)(F)F)cc(C(=O)Nc3cccc(S(N)(=O)=O)c3)c21 [Ex. 63] | – | –

IC50 (human STAT6/pIL-4Rα) [µM] | SMILES | inhibition at 0.1 µM (human STAT6) [%] | inhibition at 1 µM (human STAT6) [%]
2.62 | CCn1c(-c2ccc(-n3cnn(C)c3=O)cn2)cc2cc(C(F)(F)F)cc(C(=O)Nc3ccc(F)c(C(N)=O)c3)c21 [Ex. 64] | – | –
1.18 | CCn1c(-c2ccc(N3CCCCC3=O)cc2)cc2cc(C(F)(F)F)cc(C(=O)Nc3ccc(F)c(C(N)=O)c3)c21 [Ex. 71] | – | –
1.9 | COCCn1c(-c2ccc(-n3c(C)nn(C)c3=O)cc2)cc2cc(C(F)(F)F)cc(C(=O)Nc3nncs3)c21 [Ex. 79] | – | –
2.27 | COCCn1c(-c2ccc(-n3c(C)nn(C)c3=O)cc2)cc2cc(C(F)(F)F)cc(C(=O)Nc3cc[nH]n3)c21 [Ex. 81] | – | –
1.14 | CCn1c(-c2ccc(-n3c(C)nn(C)c3=O)cc2)cc2ccnc(C(=O)Nc3cccc(C(N)=O)c3)c21 [Ex. 82] | – | –
1.78 | COCCn1c(-c2ccc(-n3c(C)nn(C)c3=O)cc2)cc2cc(C(F)(F)F)cc(C(=O)Nc3cncs3)c21 [Ex. 86] | – | –
1 | COCCn1c(-c2ccc(-n3c(C)nn(C)c3=O)cc2)cc2cc(C(F)(F)F)cc(C(=O)Nc3cccnn3)c21 [Ex. 87] | – | –
0.94 | Cc1nn(C)c(=O)n1-c1ccc(-c2cc3ccnc(C(=O)Nc4cccc(C(N)=O)c4F)c3n2CC2CC2)cc1 [Ex. 89] | – | –
1.89 | CCn1c(-c2ccc(-n3c(C)nn(C)c3=O)cc2)cc2cc(C(F)(F)F)nc(C(=O)Nc3cccc(C(N)=O)c3)c21 [Ex. 96] | – | –
4.06 | CCn1c(-c2ccc(-n3c(C)nn(C)c3=O)cc2)cc2cc(C(F)(F)F)cc(C(=O)Nc3ccc4c(c3)NC(=O)C4)c21 [Ex. 101] | – | –
2.66 | CCn1c(-c2ccc(-n3c(C)nn(C)c3=O)cc2)cc2cc(C(F)(F)F)cc(C(=O)Nc3ccc(CC(N)=O)cc3)c21 [Ex. 103] | – | –
0.73 | CCn1c(-c2ccc(-n3c(C)nn(C)c3=O)cc2)cc2cc(C(F)(F)F)cc(C(=O)Nc3ccc(CC(=O)NC)cc3)c21 [Ex. 104] | – | –
0.78 | CCn1c(-c2ccc(-n3c(C)nn(C)c3=O)cc2)cc2cc(C(F)(F)F)cc(C(=O)Nc3cc[nH]n3)c21 [Ex. 105] | – | –
1.97 | COCCn1c(-c2ccc(-n3c(C)nn(C)c3=O)cc2)cc2ccnc(C(=O)Nc3cccc(C(N)=O)c3)c21 [Ex. 106] | – | –
2.07 | CCn1c(-c2ccc(-n3c(C)nn(C)c3=O)cc2)cc2cc(C(F)(F)F)cc(C(=O)Nc3ccc(CNC(C)=O)cc3)c21 [Ex. 116] | – | –
